Experimental data reported in US6730674B2, “Sulfonyl pyridazinone compounds useful as aldose reductase inhibitors” (Pfizer Inc, priority 2001, dated 2004).

Molecule `O=c1ccc(S(=O)(=O)c2cccc(Br)c2)n[nH]1` [Example 4I, 6-(3-Bromo-benzenesulfonyl)-2H-pyridazin-3-one] has a melting point greater than 220 °C.
Work on `O=c1ccc(S(=O)(=O)c2ccc(Cl)c(Cl)c2)n[nH]1` [Example 4D, 6-(3,4-Dichloro-benzenesulfonyl)-2H-pyridazin-3-one] yielded a melting point of 166 to 168 °C.
Work on `O=c1ccc(S(=O)(=O)c2c(F)cc(F)cc2Cl)n[nH]1` [Example 4N, 6-(2-Chloro-4,6-difluoro-benzenesulfonyl)-2H-pyridazin-3-one] yielded a melting point greater than 250 °C.
Molecule `Cc1cc(Cl)cc(S(=O)(=O)c2ccc(=O)[nH]n2)c1` [Example 4M, 6-(3-Chloro-5-methyl-benzenesulfonyl)-2H-pyridazin-3-one] has a melting point greater than 250 °C.
